As a reminder, the IC50 is the midpoint of a concentration-inhibition curve. A lower IC50 goes with greater potency.

Among the data in publication PMC10095550, “Design, Synthesis and Biological Evaluation of 6-(Imidazo[1,2-a]pyridin-6-yl)quinazoline Derivatives as Anticancer Agents via PI3Kα Inhibition” (International Journal of Molecular Sciences, 2023) are IC50 values, retold here.

For this assay, the target named is T1, PI3Kα (Homo sapiens, UniProt P42336).
T1 construct: gene PIK3CA
As to the kind of experiment: ADP-Glo Max kinase assay. It is filed as biochemical. A general note: In ADP-Glo the light output rises with the ADP produced.

T1 sequence (P42336 whole entry): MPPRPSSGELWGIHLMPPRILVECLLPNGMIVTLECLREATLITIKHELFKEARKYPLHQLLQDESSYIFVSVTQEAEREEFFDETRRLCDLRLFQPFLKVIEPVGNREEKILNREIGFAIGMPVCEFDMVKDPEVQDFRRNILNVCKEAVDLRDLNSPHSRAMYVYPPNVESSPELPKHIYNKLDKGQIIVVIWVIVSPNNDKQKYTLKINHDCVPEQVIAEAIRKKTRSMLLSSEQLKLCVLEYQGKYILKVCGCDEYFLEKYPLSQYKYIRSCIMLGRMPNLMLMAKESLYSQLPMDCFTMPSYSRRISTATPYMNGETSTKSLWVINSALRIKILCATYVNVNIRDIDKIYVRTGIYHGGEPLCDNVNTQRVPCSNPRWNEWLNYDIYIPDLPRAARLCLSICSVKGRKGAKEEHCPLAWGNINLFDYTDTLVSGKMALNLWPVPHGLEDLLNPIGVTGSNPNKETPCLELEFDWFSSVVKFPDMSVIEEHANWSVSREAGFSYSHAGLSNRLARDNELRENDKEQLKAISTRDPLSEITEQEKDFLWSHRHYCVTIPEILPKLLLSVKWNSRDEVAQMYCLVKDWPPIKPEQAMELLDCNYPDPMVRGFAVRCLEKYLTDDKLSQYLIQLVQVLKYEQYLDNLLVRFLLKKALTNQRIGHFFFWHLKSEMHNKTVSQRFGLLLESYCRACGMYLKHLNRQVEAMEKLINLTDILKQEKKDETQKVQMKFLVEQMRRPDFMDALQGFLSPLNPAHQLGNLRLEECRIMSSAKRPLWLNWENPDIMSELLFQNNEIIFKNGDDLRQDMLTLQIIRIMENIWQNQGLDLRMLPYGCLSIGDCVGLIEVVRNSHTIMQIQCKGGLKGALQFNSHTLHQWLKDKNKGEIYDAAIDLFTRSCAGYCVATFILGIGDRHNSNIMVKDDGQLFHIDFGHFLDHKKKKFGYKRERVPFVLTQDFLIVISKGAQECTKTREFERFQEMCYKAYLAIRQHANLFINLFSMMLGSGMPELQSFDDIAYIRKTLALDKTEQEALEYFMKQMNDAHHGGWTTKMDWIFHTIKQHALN

Take `c1ccc(-c2cn3cc(-c4ccc5ncnc(NCC6CCOCC6)c5c4)ccc3n2)cc1` [13k, 6-(2-phenylimidazo[1,2-a]pyridin-6-yl)-N-((tetrahydro-2H-pyran-4-yl)methyl)quinazolin-4-amine]: the IC50 came out at 1.94 ± 0.66 nM.
